Values quoted from earlier work in the CATMoS acute toxicity set (Mansouri et al. 2021).
Where “and” joins values, the source holds several entries; their conditions need not be identical. Equal entries are not always repeated.

Experiment: rat acute oral toxicity
Conditions: in vivo

Row | Compound | LD50
1 | CC1=C(C(C)C)CC=CC1 | 4270 mg/kg
2 | CN(C)C(=O)C(CC[N@+]1([O-])CC[C@@](O)(c2ccc(Cl)cc2)CC1)(c1ccccc1)c1ccccc1 | 172 mg/kg
3 | CCOP(=O)(SC(C)CC)N1CCSC1=O (stereo unspecified) | 57 mg/kg
4 | O=C(O)c1c(Cl)ccc(Cl)c1Cl | 1640 mg/kg
5 | CN(CCCl)c1ccc(C=CC2=[N+](C)c3ccccc3C2(C)C)cc1 | 2260 mg/kg
6 | Cc1ccc(S(=O)(=O)Cl)cc1 | 4680 mg/kg
7 | COP(=S)(OC)SCSc1ccccc1Cl | 13 mg/kg
8 | O=C(O)c1cc(N=Nc2ccc(-c3ccc(N=Nc4c(O)ccc(/N=N/c5cc(S(=O)(=O)O)ccc5O)c4O)cc3)cc2)ccc1O | 12100 mg/kg
9 | C#CCN(C)CCCOc1ccc(Cl)cc1Cl | 210 mg/kg
10 | CCOC(=O)Nc1cccc2c1CN(C)CC2c1ccc(Cl)cc1 (stereo unspecified) | 665 mg/kg
11 | CNc1ccc(NCCO)c2c1C(=O)c1ccccc1C2=O | 1340 mg/kg
12 | COP(=S)(OC)SCC(=O)N1CCOCC1 | 190 mg/kg
13 | CC(C(=O)O)c1cccc2c(-c3ccccc3)coc12 (stereo unspecified) | 950 mg/kg
14 | C1OCC(COCC2COCO2)O1 (stereo unspecified) | 5150 mg/kg
15 | O=C(O)C(Br)Br | 1740 mg/kg
16 | CC(C)(C)c1cc(C2C(=O)c3ccccc3C2=O)cc(C(C)(C)C)c1 | 194 mg/kg
17 | CNS(=O)(=O)c1cc(Cl)c(Cl)cc1Cl | 5100 mg/kg
18 | CC(=O)CCC=C(C)C | 3500 mg/kg
19 | CN(C)C(=O)CCNc1ccc(Br)cc1 | 1810 mg/kg
20 | CCC(C)=C1C(=O)N(c2ccccc2)N(c2ccccc2)C1=O | 2020 mg/kg
21 | Cc1ccc(N(SC(F)(Cl)Cl)S(=O)(=O)N(C)C)cc1 | 1000 mg/kg
22 | Nc1ccc(O)c2c1C(=O)c1c(N)c(Br)cc(O)c1C2=O | 12500 mg/kg
23 | O=C1C(CCC2CC2)C(=O)N(c2ccccc2)N1c1ccccc1 | 400 mg/kg
24 | CCN(CC)CCNc1c2ccccc2nc2cccc([N+](=O)[O-])c12 | 42.2 mg/kg

Row | Compound | LD50
25 | NCC(=O)O | 7930 mg/kg and 3340 mg/kg
26 | C=Cc1ccc(OC(C)=O)cc1 | 1500 mg/kg
27 | C/C=C/Cl | 1950 mg/kg
28 | CCCCOC(=S)SC(=S)OCCCC | 1400 mg/kg
29 | Cc1cc(Cl)ccc1NC(=S)N(C)C | 2500 mg/kg
30 | COc1cc([C@@H]2c3cc4c(cc3C(O[C@@H]3O[C@@H]5CO[C@@H](C)O[C@H]5[C@H](O)[C@H]3O)C3COC(=O)[C@@H]32)OCO4)cc(OC)c1O (stereo partly specified) | 1780 mg/kg
31 | CCCCCCCCCCCC[N+](C)(C)CC(=O)[O-] | 71 mg/kg
32 | CCOC(C1=NCC(C)(CC)CN1)c1cccc(F)c1 (stereo unspecified) | 165 mg/kg
33 | CCOP(=S)(CCl)Oc1ccc([N+](=O)[O-])cc1 (stereo unspecified) | 127 mg/kg
34 | CCCC(C)=NO | 1130 mg/kg
35 | C[C@H](N)[C@H](O)c1cccc(O)c1 | 240 mg/kg
36 | CCOC(=S)SCSSCP(=O)(OCC)OCC | 14 mg/kg
37 | NC(=S)Nc1ccc(Cl)cc1 | 15 mg/kg
38 | COP(=O)(OC)OC(Cl)C(Cl)(Cl)Cl (stereo unspecified) | 14 mg/kg
39 | CC[N+]1(CC)CCCO1 | 150 mg/kg
40 | COC1CC=C2CCN3CCC4=C(CC(=O)OC4)C23C1 (stereo unspecified) | 320 mg/kg
41 | CCOP(=O)(OCC)SC(C)C | 179 mg/kg
42 | CCN(CC)c1ccc(N=Nc2ccc(S(=O)(=O)N(C)C)cc2)c(S(=O)(=O)NCC[n+]2ccccc2)c1 | 5120 mg/kg
43 | CC(=O)Oc1ccc(-c2ccc(F)cc2)cc1C(=O)O | 185 mg/kg
44 | CCC(C)(C)c1ccc(Cl)c(OC(=O)NC)c1 | 75 mg/kg
45 | O=C(CCCN1CCC(n2c(=S)[nH]c3ccccc32)CC1)c1ccc(F)cc1 | 232 mg/kg
46 | CCN1CCCC1CNC(=O)c1cc(Cl)cc(Cl)c1OCc1ccccc1 (stereo unspecified) | 576 mg/kg
47 | CC(=O)Nc1ccc(N=NN(C)C)cc1 | 510 mg/kg
48 | COC(=O)C=C1CCCC1 | 3360 mg/kg

Row | Compound | LD50
49 | Nc1ccccc1-c1ccccc1 | 2340 mg/kg
50 | CC(=O)OCCO | 8250 mg/kg
51 | COCCNC(=O)c1nc2c(N)nc(-c3ccccc3)nc2nc1NCCOC | 5010 mg/kg
52 | COc1ccc(C)cc1NC(C)=O | 2240 mg/kg
53 | COc1ccc(C=CC(=O)O)cc1O | 7900 mg/kg
54 | C=C(OP(=O)(OCC)OCC)c1ccc(Cl)cc1Cl | 1530 mg/kg
55 | Cc1ccc(N=C=O)cc1N=C=O | 5800 mg/kg
56 | C[N+](C)(N)CCCl | 3400 mg/kg
57 | O=C1C(I)=CC(=C(c2cc(I)c(O)c(I)c2)c2ccccc2C(=O)O)C=C1I | 2800 mg/kg
58 | CCC(C)C(=O)OC1C(OC(C)=O)c2c(ccc3ccc(=O)oc23)OC1(C)C (stereo unspecified) | 1210 mg/kg
59 | CC(C)CC(CC(C)C)OCCOCCO | 8680 mg/kg
60 | COc1cc(C(F)(F)F)ccn1 | 1750 mg/kg
61 | O=C(Nc1nc2ccc([N+](=O)[O-])cc2s1)c1ccc([N+](=O)[O-])cc1 | 1500 mg/kg
62 | CC(C)OCCCO | 4000 mg/kg
63 | CC(=O)CC(=O)Nc1ccccc1 | 2450 mg/kg
64 | CC1CCCc2n1c(=O)c(C(N)=O)c[n+]2C (stereo unspecified) | 600 mg/kg
65 | CN1CCN(C2=Cc3ccccc3Oc3ccc(Cl)cc32)CC1 | 231 mg/kg
66 | CCOP(=S)(OC)Oc1ccc([N+](=O)[O-])cc1 (stereo unspecified) | 2.85 mg/kg
67 | CCCCNCC1COc2cccc(OCC)c2O1 (stereo unspecified) | 348 mg/kg
68 | O=c1[nH]c2ccccc2n1C1CCN(CCCC(c2ccc(F)cc2)c2ccc(F)cc2)CC1 | 1100 mg/kg
69 | CNP1(=S)OCc2cc([N+](=O)[O-])ccc2O1 (stereo unspecified) | 125 mg/kg
70 | CCC=CCC=CCC=CCC=CCC=CCC=CCCC(=O)O | 10000 mg/kg
71 | CC(=S)Nc1ccccc1 | 2640 mg/kg
72 | Nc1cc([N+](=O)[O-])ccc1Cl | 2020 mg/kg

Row | Compound | LD50
73 | CC(C)(COCC1CO1)COCC1CO1 (stereo unspecified) | 4500 mg/kg
74 | Nc1nc(N)c2cc(N(Cc3ccc(Cl)c(Cl)c3)N=O)ccc2n1 | 317 mg/kg
75 | C#CCN(C)Cc1ccccc1 | 250 mg/kg and 300 mg/kg
76 | CC1(C)S[C@@H]2[C@H](NC(=O)C(C(=O)Oc3ccc4c(c3)CCC4)c3ccccc3)C(=O)N2[C@H]1C(=O)O (stereo partly specified) | 4450 mg/kg
77 | O=C(O)c1c(Cl)ccc2cc(Cl)cnc12 | 2190 mg/kg
78 | O=[N+]([O-])c1ccc(C=Cc2ccc([N+](=O)[O-])cc2S(=O)(=O)O)c(S(=O)(=O)O)c1 | 12600 mg/kg
79 | CCCCCCCc1ccc(C)cc1O | 3320 mg/kg
80 | CC(C)C(C(=O)OC(C#N)c1ccc(Oc2ccccc2)cc1)c1ccc(Cl)cc1 (stereo unspecified) | 451 mg/kg
81 | CN(C(=O)c1cc(C(F)(F)F)cc(C(F)(F)F)c1)c1nc(C(F)(F)F)c(Cl)s1 | 501 mg/kg
82 | CCOC1CC(C)C=CO1 (stereo unspecified) | 3400 mg/kg
83 | O=[N+]([O-])c1cc([N+](=O)[O-])c(F)cc1F | 50 mg/kg
84 | C[C@H](CCC(=O)O)[C@H]1CC[C@H]2[C@@H]3C(=O)C[C@@H]4CC(=O)CC[C@]4(C)[C@H]3CC(=O)[C@]12C | 3760 mg/kg and 4000 mg/kg
85 | CN1CCCCC1CCN1c2ccccc2Sc2ccc(Cl)cc21 (stereo unspecified) | 1200 mg/kg
86 | CC(C)CC(C)OC(=O)CC(C(=O)OC(C)CC(C)C)S(=O)(=O)O (stereo unspecified) | 1750 mg/kg
87 | Cn1c(=O)sc2cccc(Cl)c21 | 1940 mg/kg
88 | CNC(=O)Oc1ccccc1C1CCCC1 | 187 mg/kg
89 | CCOC(=S)C=Cc1cc(OC)c(OC)c(OC)c1 | 1000 mg/kg
90 | Nc1ccc(F)cc1 | 417 mg/kg
91 | CC1Oc2ccccc2CC1N(C)C (stereo unspecified) | 812 mg/kg
92 | CCN(CC)CCC(CC=C(C)C)(C(N)=O)c1cccc2ccccc12 (stereo unspecified) | 71 mg/kg
93 | O=P(O)(O)Oc1c(Br)cc(Br)cc1-c1cc(Br)cc(Br)c1O | 142 mg/kg
94 | O=C(NN1CCCC1)NS(=O)(=O)c1ccc(Cl)cc1 | 4100 mg/kg
95 | CCN(CC)CCSC(=O)N(c1ccccc1)c1ccccc1 | 370 mg/kg
96 | CN(C)C(=O)Nc1cccc(OC(F)(F)C(F)F)c1 | 1260 mg/kg

Row | Compound | LD50
97 | Nn1cnnc1 | 4800 mg/kg and 13600 mg/kg
98 | Cc1nc(C)c(Cl)c(O)c1Cl | 18000 mg/kg
99 | CCN(CCC#N)c1ccccc1 | 4840 mg/kg
100 | COc1ccc(C(CCCc2ccccc2)N(C)C)cc1OC (stereo unspecified) | 500 mg/kg
101 | CCc1cccc2c3c([nH]c12)C(CC)(CC(=O)O)OCC3 (stereo unspecified) | 94 mg/kg
102 | CCCCCCCCCCO | 4720 mg/kg
103 | Cc1n[nH]c(=O)c2noc(C)c12 | 1000 mg/kg
104 | CC(C)(Oc1ccc(C2CCCc3ccccc32)cc1)C(=O)O (stereo unspecified) | 900 mg/kg
105 | CCCCC(CC)COC(=O)COc1cc(Cl)c(Cl)cc1Cl (stereo unspecified) | 500 mg/kg
106 | Cc1ccccc1OCC(COC(O)C(Cl)(Cl)Cl)OC(O)C(Cl)(Cl)Cl (stereo unspecified) | 880 mg/kg
107 | CCCCCCCCCC=CC(=O)OC(=O)C=CCCCCCCCCC | 3800 mg/kg
108 | O=C1CCc2cc(CCCN3CCN(c4ccccc4)CC3)ccc2N1 | 500 mg/kg
109 | N#CCCC1CN2CCc3cc4c(cc3C2CC1=O)OCO4 (stereo unspecified) | 1410 mg/kg
110 | COC(=O)C1CCCCC1 | 3880 mg/kg
111 | CC(C)N(Sc1nc2ccccc2s1)C(C)C | 5200 mg/kg
112 | CC(C(=O)O)c1ccc(N2CC=CC2)c(Cl)c1 (stereo unspecified) | 351 mg/kg
113 | CNC(=O)N(C)c1nnc(C(F)(F)F)s1 | 278 mg/kg
114 | CCCCCCCCCCCCCCCC[N+](C)(C)C | 410 mg/kg
115 | CCOC(O)C(Cl)(Cl)Cl (stereo unspecified) | 880 mg/kg
116 | CC(Cl)(Cl)[N+](=O)[O-] | 410 mg/kg
117 | CCCOP(=S)(OC)SCN1C(=O)c2ccccc2C1=O (stereo unspecified) | 90 mg/kg
118 | CNC(=O)Oc1cccc2c1OCCO2 | 126 mg/kg
119 | O=S1(=O)CCCO1 | 100 mg/kg
120 | CCOC(C1=NCCCCN1)c1ccccc1 (stereo unspecified) | 375 mg/kg

Row | Compound | LD50
121 | O=P(O)(O)OC(=CCl)c1ccc(Cl)cc1Cl | 13 mg/kg
122 | CCCCC(C=CC(C)=O)CC (stereo unspecified) | 8120 mg/kg
123 | Cc1cc(=NC(=O)c2ccccc2O)n(-c2ccccc2)n1C | 1270 mg/kg
124 | CN(C)CCCN1c2ccccc2CCc2cc(O)ccc21 | 2980 mg/kg
125 | COc1cc(C2NC(=O)CCS2)cc(OC)c1OC (stereo unspecified) | 5400 mg/kg
126 | CCOc1ccc(NC(=O)CC(C)=O)cc1 | 176 mg/kg
127 | Cn1c(=O)c2c(ncn2CCCCN2CCN(c3ccc(F)cc3)CC2)n(C)c1=O | 353 mg/kg
128 | C=C(C#N)C(=O)OC | 1600 mg/kg
129 | CCCCCC(C)=O | 1670 mg/kg
130 | FC(F)(F)c1nc2c(Br)c(Br)c(Br)cc2[nH]1 | 7.18 mg/kg
131 | CCC(=O)O[C@@H]1CC(=O)O[C@H](C)C/C=C/C=C/[C@H](O)[C@H](C)C[C@H](CC=O)[C@H](O[C@@H]2O[C@H](C)[C@@H](O[C@H]3C[C@@](C)(O)[C@@H](OC(=O)CC)[C@H](C)O3)[C@H](N(C)C)[C@H]2O)[C@H]1OC | 9600 mg/kg
132 | CCO[Si](C)(C)OCC | 9280 mg/kg
133 | O=C(OCC(COC(=O)c1ccccc1)(COC(=O)c1ccccc1)COC(=O)c1ccccc1)c1ccccc1 | 1160 mg/kg
134 | NC(N)=NCC1CCCCCCN1 (stereo unspecified) | 3550 mg/kg
135 | CN(C)CCCCCNc1c2ccccc2nc2cccc([N+](=O)[O-])c12 | 63.3 mg/kg
136 | COP(=S)(OC)SCCSc1ccc(Cl)cc1 | 100 mg/kg
137 | Clc1ccc2ocnc2c1 | 650 mg/kg
138 | CC(C)C(NC(=O)COc1ccc(Cl)cc1Cl)C(=O)O (stereo unspecified) | 750 mg/kg
139 | O=COCc1ccccc1 | 1400 mg/kg
140 | C=CC(=C)Cl | 450 mg/kg
141 | O=C1OCCN1/N=C/c1ccc([N+](=O)[O-])o1 | 2340 mg/kg
